# Source: patent US20110268742A1, “PCTP MODULATORS IN THE TREATMENT OF ACNE, OF SEBORRHOEIC DERMATITIS OR OF HYPERSEBORRHOEA” (Galderma Research & Development, priority 2008, published 2011)
# Experiments:
# [1] = system: PCTP (phosphatidylcholine transfer protein) gene expression; experiment: Expression of PCTP in Fuzzy rat epidermal split after 8 days of topical treatment, Affymetrix transcriptome analysis; type: in vivo; details: female Fuzzy rats, topical 1% once a day for 8 days, Affymetrix 1387058_at, control condition 143
# Method: Fuzzy Rat Epidermal Split Expression Data
# The studies are carried out in female Fuzzy rats (Hsd: Fuzzy-fz) ten weeks old at the beginning of the study. The animals are treated at a dose of 1% (PPARg agonist rosiglitazone in solution in acetone) once a day for 8 days. Two hours after the final treatment, the animals are sacrificed by euthanasia and the skin on the back is removed. After incubation in dispase, the epidermis carrying the sebaceous glands is detached from the dermis (epidermal split). After grinding of the samples, the mRNA is prepared using Qiagen columns, in accordance with the supplier's instructions. The material thus prepared is subjected to large-scale transcriptome analysis on an Affymetrix platform. The data are subsequently standardized and, after statistical analysis, the results produced are expressed in arbitrary expression units (see below) accompanied, for each piece of data, by a statistical value for presence of the transcript (presence=1; absence=0).
# [2] = system: PCTP (phosphatidylcholine transfer protein) gene expression; experiment: Expression of PCTP in rat sebaceous gland (epidermal split) after topical PPARgamma agonist, real-time PCR kinetics; type: in vivo; details: for PCTP relative induction: topical 1% in acetone, female Fuzzy rats, standardized to 18S, versus carrier group; for PCTP expression in vivo at the level of the sebaceous glands following topical treatment: topical treatment with PPARγ ligand at 1%
# Source text: Number per batch: 40 (8 animals per group)
# Treatment: Route of administration: topical
# Compound/batch: PPARgamma agonists: • A: 5-{4-[2-(methylpyridin-2-ylamino)ethoxy]-benzyl}thiazolidine-2,4-dione • B: (2-methoxyethoxymethoxy)naphthalene-2-carboxylic acid [4′-(2,4-dioxothazolidin-5-ylmethyl)biphenyl-3-ylmethyl]methylamide or rosiglitazone • C: (S)-2-ethoxy-3-{4-[6-(3-heptyl-1-methyl-ureido)pyridin-2-yl]phenyl}propionic acid
# Method of evaluation: The animals are weighed at the beginning and at the end of the study. Skin biopsies are taken (6 samples of skin excised per rat) in order to analyse the expression of the genes (RNA extraction, reverse transcriptase and real-time PCR). The samples are stored overnight at 4° C. before incubation in 1M sodium bromide (NaBr) for 2 hours at 37° C. After incubation, the samples are separated into epidermis or dermis. The epidermal samples are stored at […]. Under these conditions, the sebaceous glands are in the epidermal split. PCRs are carried out, beginning with the cDNAs originating from the epidermal splits controlling sebaceous glands from control rats or rats treated with a PPARγ agonist; the mRNA is extracted using a column and quantified. The quality of the mRNAs is measured and is represented by the 18S/28S ratio. The results are standardized with respect to 18S, expressed as relative induction versus untreated animals (carrier group). The statistical analysis is obtained using internal software based on a modified Monte Carlo statistical analysis.
Compound,Expression after treatment with 1% rosiglitazone [1],PCTP relative induction ([2]; 0 hours),PCTP relative induction ([2]; 8 hours),PCTP relative induction ([2]; 24 hours),PCTP relative induction ([2]; 48 hours),PCTP relative induction ([2]; 96 hours),PCTP expression in vivo at the level of the sebaceous glands following topical treatment [2]
"(2-methoxyethoxymethoxy)naphthalene-2-carboxylic acid [4′-(2,4-dioxothazolidin-5-ylmethyl)biphenyl-3-ylmethyl]methylamide",445 arbitrary expression units,1,2.57,2.79,3.37,1.15,modulated
"CN(CCOc1ccc(CC2SC(=O)NC2=O)cc1)c1ccccn1 (stereo not shown) [A, 5-{4-[2-(methylpyridin-2-ylamino)ethoxy]-benzyl}thiazolidine-2,4-dione]",–,1,7.06,8.54,6.70,3.38,modulated
"CCCCCCCNC(=O)N(C)c1cccc(-c2ccc(C[C@H](OCC)C(=O)O)cc2)n1 [C, (S)-2-ethoxy-3-{4-[6-(3-heptyl-1-methyl-ureido)pyridin-2-yl]phenyl}propionic acid]",–,1,1.54,3.69,3.11,1.38,modulated
